Data: article PMC6981454, “Promising 2,6,9-Trisubstituted Purine Derivatives for Anticancer Compounds: Synthesis, 3D-QSAR, and Preliminary Biological Assays” (International Journal of Molecular Sciences, 2019)
Like-named read-outs stand apart in the source and are kept apart here.

Experiments:
Type in all cases: cell-based, human
[1] = test system: MRC-5; experiment: MTT cytotoxicity assay, 72 h, normal control cells; details: normal fibroblasts
Description: (§1) In our study, the human cancer cell lines used were CFAPC- 1 (pancreatic adenocarcinoma); NCI-H460 (large cell lung); HL-60 (acute promyelocytic leukaemia); CACO2 (colorectal adenocarcinoma); HCT-116 (colorectal carcinoma); K562 (chronic myeloid leukaemia); MCF-7 (breast adenocarcinoma); and MRC-5 control cells (normal fibroblasts).
(§2) CFAPC-1, NCI-H460 H1975, HL-60, HCT-116, CACO2, K562, MCF-7, and MCR-5 were grown and maintained in RPMI 1640 and DMEM F12 as appropriate with 10% fetal bovine serum, 100 UI/mL penicillin–streptomycin, and cultured al 37 °C in 5% CO2 humidified atmosphere. Control cultures were treated with dimethyl sulfoxide (1%) alone at the same concentration as in the purine derivatives treatment. Cell viability was determined by trypan blue dye exclusion. Cell numbers were counted in hemocytometer by light microscopy.
(§3) Cytotoxicity assays were performed by using the MTT reduction method as described in the literature. Briefly, cancer cell lines were plated in a flat-bottom 96-wells plate at 1 × 10^4 cells per well density. Then, the cells were incubated with synthetized compounds at different concentrations (from 0.1 to 100 µM) in 200 µL of 10% fetal bovine serum-RPMI or EMEM culture medium at 37 °C for 72 h. Then, 10 µL of MTT was added at a final concentration of 0.5 mg/mL, incubated at 37 °C for 4 h, and then solubilized with 10% sodium dodecyl sulphate (SDS) in 0.1 mM HCl and incubated overnight at 37 °C. Formazan formation was measured at 570 nm in a multi-well reader (StatFax 4200).

[2] = test system: CACO2; experiment: MTT cytotoxicity assay, 72 h
[3] = test system: HL-60; experiment: MTT cytotoxicity assay, 72 h; details: for Experimental pIC50 (HL-60): -logIC50 in molar concentration
Description: as §1, §2, §3

[4] = test system: HCT-116; experiment: MTT cytotoxicity assay, 72 h
Description: as §1, §2, §3

[5] = test system: MCF-7; experiment: MTT cytotoxicity assay, 72 h; details: for IC50: MTT, 72 h, IC50 ± SD
Description: as §1, §2, §3

[6] = test system: CFPAC-1; experiment: MTT cytotoxicity assay, 72 h
Description: as §1, §2, §3

[7] = test system: K562; experiment: MTT cytotoxicity assay, 72 h; details: for IC50: MTT, 72 h, IC50 ± SD
Description: as §1, §2, §3

[8] = test system: NCI-H460; experiment: MTT cytotoxicity assay, 72 h; details: for Experimental pIC50 (NCI-H460): -logIC50 in molar concentration
Description: as §1, §2, §3

[9] = test system: HL-60 cells; experiment: Cell viability by propidium iodide flow cytometry; details: HL-60, 50 μM, 24 h, PI staining
Description: Next, in order to determinate the cell death type induced by the most promising compounds, we performed a flow cytometry analysis of cell viability in cell line HL-60 treated with the most promising compounds (selected according to their IC50 values and SI). The HL-60 cancer cells were chosen due to their sensitivity to prepared compounds. […] As a preliminary apoptosis filter, propidium iodide (PI) staining was used through flow cytometry analysis which discriminated a population of viable cells impermeable to PI (PI negative) from necrotic cells PI-permeable (PI positive) and apoptotic cells (the difference of the previous two). The results are shown in Figure 7, illustrating that all purine derivatives tested induced apoptosis on HL-60 cells. Around 40% of apoptotic cells were detected in a culture treated with compounds 7a and 7i, 30% by 7e, 7g, and 7h and 70% by 7d and 7j. […] (For dot plots, see Supplementary Information Figures S1–S3.)
Cell viability was analyzed by flow cytometry as previously described. In this assay, after setting the baseline to exclude cell debris, cells impermeable to propidium iodide (PI negative) are considered as viable. Two populations of PI-permeable dead cells are distinguished based on fluorescence intensity, corresponding to either hypodiploid apoptotic cells or necrotic cells with intact DNA. Here, HL60 cells were incubated with concentrations of 50 µM of each compound for 24 h at 37 °C. Cells were harvested and stained with 10 µg/mL of propidium iodide to determine cell viability. Samples containing roughly 1 × 10^4 cells were evaluated by flow cytometry (FACScanto II; Becton Dickinson, Mountain View, CA) and analyzed using FCS Express v6 software. Three independent biological replicates were performed.

[10] = MTT, 72 h, IC50 ± SD, read-out: IC50 HL-60
[11] = MTT, 72 h, IC50 ± SD, read-out: IC50 NCI-H460
[12] = Homo sapiens, Caco-2, IC50 ± SD
[13] = Homo sapiens, HL-60, 72 h, MTT, 72 h, IC50 ± SD, read-out: IC50 HL-60
[14] = Homo sapiens, HL-60, -logIC50 in molar concentration, Table S1, read-out: Experimental pIC50 (HL-60) (converted)
[15] = Homo sapiens, HCT-116, IC50 ± SD
[16] = Homo sapiens, CFPAC-1, IC50 ± SD
[17] = Homo sapiens, NCI-H460, 72 h, MTT, 72 h, IC50 ± SD, read-out: IC50 NCI-H460

Structure (SMILES)	IC50 ([1]; IC50 ± SD) [µM]	IC50 ([2]; IC50 ± SD) [µM]	Experimental pIC50 (HL-60) ([3]; Table S1) [M]	IC50 [3, 10] [µM]	IC50 ([4]; IC50 ± SD) [µM]	IC50 [5] [µM]	IC50 ([6]; IC50 ± SD) [µM]	IC50 [7] [µM]	IC50 [8, 11] [µM]	IC50 ([1]; Homo sapiens, MRC5, IC50 ± SD) [µM]	IC50 [2, 12] [µM]	IC50 [4, 15] [µM]	IC50 ([5]; Homo sapiens, MCF7, 72 h) [µM]	IC50 [6, 16] [µM]	IC50 ([7]; Homo sapiens, K562, 72 h) [µM]	IC50 [8, 17] [µM]	also measured
CCn1cnc2c(-c3ccc(OC(F)(F)F)cc3)nc(NCC3CCCCC3)nc21 [4c, N-(cyclohexylmethyl)-9-ethyl-6-(4-(trifluoromethoxy)phenyl)-9H-purin-2-amine]	60 ± 1	> 100	4.6021	25 ± 5.4	> 50	> 25	67 ± 1	> 25	64 ± 2	–	–	–	–	–	–	–	Experimental pIC50 (NCI-H460) ([8]; Table S2): 4.1938 M
CCCn1cnc2c(-c3ccc(OC(F)(F)F)cc3)nc(NC3CCCC3)nc21 [4e, N-cyclopentyl-9-propyl-6-(4-(trifluoromethoxy)phenyl)-9H-purin-2-amine]	> 100	> 100	4.7447	18 ± 4	> 50	> 25	> 100	> 25	> 100	–	–	–	–	–	–	–	–
CCCn1cnc2c(-c3ccc(OC(F)(F)F)cc3)nc(NC3CCCCC3)nc21 [4f, N-cyclohexyl-9-propyl-6-(4-(trifluoromethoxy)phenyl)-9H-purin-2-amine]	68 ± 1	> 100	5.0088	9.8 ± 1.5	> 50	> 25	69 ± 1	> 25	> 100	–	–	–	–	–	–	–	–
CCCn1cnc2c(-c3ccc(OC(F)(F)F)cc3)nc(NCC3CCCCC3)nc21 [4g, N-(cyclohexylmethyl)-9-propyl-6-(4-(trifluoromethoxy)phenyl)-9H-purin-2-amine]	> 100	> 100	4.6778	21 ± 5	> 50	> 25	98 ± 5	> 25	72 ± 2	–	–	–	–	–	–	–	Experimental pIC50 (NCI-H460) ([8]; Table S2): 4.1427 M
CCCn1cnc2c(-c3ccc(OC(F)(F)F)cc3)nc(NC3CCCCCC3)nc21 [4h, N-cycloheptyl-9-propyl-6-(4-(trifluoromethoxy)phenyl)-9H-purin-2-amine]	–	–	–	–	–	–	–	–	–	> 100	> 100	> 50	> 25	> 100	> 25	> 100	IC50 [3, 13]: 14 ± 1 µM; IC50 [3, 14]: 14 µM
O=[N+]([O-])c1ccc(N2CCN(c3nc(Cl)nc4c3ncn4C3CCCC3)CC2)nc1 [7a, 2-Chloro-9-cyclopentyl-6-(4-(5-nitropyridin-2-yl)piperazin-1-yl)-9H-purine]	–	–	–	–	–	–	–	–	5.73 ± 0.37	> 100	> 100	6.4 ± 1.3	0.95 ± 0.14	> 100	0.87 ± 0.01	< 10	apoptotic cells [9]: Around 40%; IC50 [3, 14]: 2.1 µM; Selectivity Index (SI) MRC-5/HL-60 ([3]; IC50 in MRC-5 / IC50 in HL-60): > 47.6; Selectivity Index (SI) MRC-5/MCF-7 ([5]; IC50 in MRC-5 / IC50 in MCF-7): > 105; Selectivity Index (SI) MRC-5/K562 ([7]; IC50 in MRC-5 / IC50 in K562): > 115; IC50 ([8]; Homo sapiens, NCI-H460, -logIC50 in molar concentration, Table S2, read-out: Experimental pIC50 (NCI-H460) (converted)): 5.73 µM; Selectivity Index (SI) MRC-5/NCI-H460 ([8]; IC50 in MRC-5 / IC50 in NCI-H460): > 17.5
Clc1nc(N2CCN(c3ccccn3)CC2)c2ncn(C3CCCC3)c2n1 [7b, 2-Chloro-9-cyclopentyl-6-(4-(pyridin-2-yl)piperazin-1-yl)-9H-purine]	–	–	–	–	–	–	–	–	–	> 100	> 100	> 50	5.07 ± 0.9	> 100	3.06 ± 0.54	> 100	IC50 [3, 13]: > 50 µM
